Results reported in patent publication US9079895B2, “Morpholino compounds, uses and methods” (University of Dundee, priority 2012, dated 2015).
“And” between values parts separate entries of the source, which are not always exact repeats. Equal values may be shown once. Read-outs that look alike come from different tables or passages of the source.

Key:
[1] = target: 5HT4 receptor (Homo sapiens (Human), UniProt Q13639); assay: Secondary radioligand binding assay, 5HT4; parameters: key: “—” indicates that a binding interaction was not detected; settings: average of at least two experiments
Procedure: 1. Secondary Radioligand Binding Assays The detailed experimental protocols for the radioligand and functional receptor assays are available on the NIMH PDSP website at http://pdsp.med.unc.edu/UNC-CH %20Protocol %20Book.pdf. Assay Buffer: Standard Binding Buffer (50 mM Tris-HCl, 10 mM MgCl2, 1 mM EDTA, pH 7.4) Membrane Fraction Source: Transiently or stably transfected cell lines (e.g., HEK293, COS, CHO, NIH3T3) Protocol adapted from Roth et al. (1986), J. Pharmacol. Exp. Ther., 238(2): 480-485; and Roth et al. (1994), J. Pharmacol. Exp. Ther., 268(3): 1403-1410. […] A similar stock of a reference compound (positive control) is also prepared. […] Radioligand is diluted to five times the assay concentration (see Table 18) in Standard Binding Buffer. Typically, the assay concentration of radioligand is a value between one half the KD and the KD of a particular radioligand at its target. 50 μl aliquots of radioligand are dispensed into the wells of a 96-well plate containing 100 μl of Standard Binding Buffer. Then, duplicate 50 μl aliquots of the test and reference compound dilutions are added. Finally, crude membrane fractions of cells expressing recombinant target (prepared from 10 cm plates by harvesting PBS-rinsed monolayers, resuspending and lysing in chilled, hypotonic 50 mM Tris-HCl, pH 7.4, centrifuging at 20,000×g, decanting the supernatant and storing at −80° C.; typically, one 10 cm plate provides sufficient material for 24 wells), are resuspended in 3 ml of chilled Standard Binding Buffer and homogenized by several passages through a 26 gauge needle, then 50 μl are dispensed into each well. […] Four rapid 500 μl washes are performed with chilled Standard Binding Buffer to reduce non-specific binding. Filters are placed in 6 ml scintillation tubes and allowed to dry overnight. The next day, 4 ml of EcoScint scintillation cocktail (National Diagnostics) are added to each tube. The tubes are capped, labeled, and counted by liquid scintillation counting. For higher throughput assays, bound radioactivity is harvested onto 0.3% polyethyleneimine-treated, 96-well filter mats using a 96-well Filtermate harvester. The filter mats are dried, then scintillant is melted onto the filters and the radioactivity retained on the filters is counted in a Microbeta scintillation counter. Raw data (dpm) representing total radioligand binding (i.e. specific+non-specific binding) are plotted as a function of the logarithm of the molar concentration of the competitor (i.e. test or reference compound).

[2] = target: Alpha1A adrenergic receptor (Homo sapiens (Human), UniProt P35348); assay: Secondary radioligand binding assay, Alpha1A; parameters: key to Ki Alpha1A: “—” indicates that a binding interaction was not detected; settings: average of at least two experiments
Source text: 1. Secondary Radioligand Binding Assays The detailed experimental protocols for the radioligand and functional receptor assays are available on the NIMH PDSP website at http://pdsp.med.unc.edu/UNC-CH %20Protocol %20Book.pdf. Raw data (dpm) representing total radioligand binding (i.e. specific+non-specific binding) are plotted as a function of the logarithm of the molar concentration of the competitor (i.e. test or reference compound). […] C. Adrenergic Receptors: α1A, α1B, α2A, α2B, α2C, β1, β2, β3 Assay Buffers: For α1 receptors, α1 Binding Buffer (20 mM Tris-HCl, 145 mM NaCl, pH 7.4); for α2 receptors, α2 Binding Buffer (50 mM Tris-HCl, 5 mM MgCl2, pH 7.7); for β receptors, β Binding Buffer (50 mM Tris-HCl, 3 mM MnCl2, pH 7.7) Membrane Fraction Source: Transiently or stably transfected cell lines (e.g. HEK293, COS, CHO, NIH3T3) Protocol adapted from Arango et al. […] (1990), Gen. Psychiatry, 47: 1038-1047. The method is carried out in the manner described for the serotonin receptor assay above, except where described below. Eleven dilutions (5× assay concentration) of the test and reference (see Table 20) compounds are prepared in the appropriate buffer by serial dilution, as previously described. Radioligand is diluted to five times the assay concentration (see Table 21) in the appropriate buffer. […] Four rapid 500-μl washes are performed with chilled distilled water (for α1 and β receptors) or 0.1% polyethyleneimine (for α2 receptors) to reduce non-specific binding. Filters are placed in 6 ml scintillation tubes and allowed to dry overnight and the samples are treated to obtain data as described above. [table]

[3] = target: 5HT1a receptor (Homo sapiens (Human), UniProt P08908); assay: Secondary radioligand binding assay, 5HT1a; settings: average of at least two experiments
[4] = target: dopamine D4 receptor (Homo sapiens (Human), UniProt P21917); assay: Secondary radioligand binding assay, D4
Procedure: (§1) 1. Secondary Radioligand Binding Assays
(§2) The detailed experimental protocols for the radioligand and functional receptor assays are available on the NIMH PDSP website at http://pdsp.med.unc.edu/UNC-CH %20Protocol %20Book.pdf.
(§3) Radioligand is diluted to five times the assay concentration (see Table 18) in Standard Binding Buffer. Typically, the assay concentration of radioligand is a value between one half the KD and the KD of a particular radioligand at its target. 50 μl aliquots of radioligand are dispensed into the wells of a 96-well plate containing 100 μl of Standard Binding Buffer. Then, duplicate 50 μl aliquots of the test and reference compound dilutions are added.
(§4) The 250 μl reactions are incubated at room temperature and shielded from light (to prevent photolysis of light-sensitive ligands) for 1.5 hours, then harvested by rapid filtration onto Whatman GF/B glass fiber filters pre-soaked with 0.3% polyethyleneimine using a 96-well Brandel harverster. Four rapid 500 μl washes are performed with chilled Standard Binding Buffer to reduce non-specific binding. Filters are placed in 6 ml scintillation tubes and allowed to dry overnight. The next day, 4 ml of EcoScint scintillation cocktail (National Diagnostics) are added to each tube. The tubes are capped, labeled, and counted by liquid scintillation counting. […] The filter mats are dried, then scintillant is melted onto the filters and the radioactivity retained on the filters is counted in a Microbeta scintillation counter.
(§5) Raw data (dpm) representing total radioligand binding (i.e. specific+non-specific binding) are plotted as a function of the logarithm of the molar concentration of the competitor (i.e. test or reference compound).
(§6) B. Dopamine Receptors: D1, D2, D3, D4, D5 Assay Buffers: Dopamine Binding Buffer (50 mM NaCl, 50 mM HEPES-HCl, 5 mM MgCl2, 0.5 mM EDTA, pH 7.4) Membrane Fraction Source: Transiently or stably transfected cell lines (e.g. HEK293, COS, CHO, NIH3T3)
(§7) The method is carried out in the manner described for the serotonin receptor assay above. Eleven dilutions (5× assay concentration) of the test and reference (see Table 19) compounds are prepared in Dopamine Binding Buffer by serial dilution, as previously described. Radioligand is diluted to five times the assay concentration (see Table 20) in Dopamine Binding Buffer.

[5] = target: dopamine D2 receptor (Homo sapiens (Human), UniProt P14416); assay: Secondary radioligand binding assay, D2; parameters: key to Ki D2: “—” indicates that a binding interaction was not detected; settings: average of at least two experiments
Procedure: as §1, §2, §3, §4, §5, §6, §7

[6] = receptor binding, average of at least two experiments, read-out: Ki D4
[7] = read-out: Ki dopamine D4 (relatively high affinity)

Sequence of dopamine D4 receptor (P21917 whole entry, species assumed): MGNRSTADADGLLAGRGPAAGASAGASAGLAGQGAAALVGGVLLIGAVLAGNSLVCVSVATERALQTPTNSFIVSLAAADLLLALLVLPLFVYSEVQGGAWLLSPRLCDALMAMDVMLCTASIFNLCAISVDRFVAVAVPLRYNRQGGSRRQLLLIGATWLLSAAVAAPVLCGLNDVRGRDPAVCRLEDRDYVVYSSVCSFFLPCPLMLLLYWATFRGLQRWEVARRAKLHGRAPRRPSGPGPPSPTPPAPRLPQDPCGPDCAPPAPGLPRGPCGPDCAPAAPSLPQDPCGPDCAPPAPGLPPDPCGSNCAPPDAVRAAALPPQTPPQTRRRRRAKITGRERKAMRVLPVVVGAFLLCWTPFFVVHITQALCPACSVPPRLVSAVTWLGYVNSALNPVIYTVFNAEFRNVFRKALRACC
Sequence of dopamine D2 receptor (P14416 whole entry, species assumed): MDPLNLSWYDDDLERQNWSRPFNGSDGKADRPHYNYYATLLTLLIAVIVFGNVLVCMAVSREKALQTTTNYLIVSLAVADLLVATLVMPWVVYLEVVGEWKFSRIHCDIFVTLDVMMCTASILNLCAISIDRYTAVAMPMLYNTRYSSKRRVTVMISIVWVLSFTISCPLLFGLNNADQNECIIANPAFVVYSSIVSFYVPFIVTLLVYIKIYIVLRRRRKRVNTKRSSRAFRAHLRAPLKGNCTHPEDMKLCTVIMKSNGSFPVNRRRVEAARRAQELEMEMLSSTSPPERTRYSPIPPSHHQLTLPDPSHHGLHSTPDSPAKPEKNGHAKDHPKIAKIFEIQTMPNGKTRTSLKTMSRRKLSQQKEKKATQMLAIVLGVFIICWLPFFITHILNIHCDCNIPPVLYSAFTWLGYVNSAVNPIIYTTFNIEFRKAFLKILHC
Sequence of 5HT1a receptor (P08908 whole entry): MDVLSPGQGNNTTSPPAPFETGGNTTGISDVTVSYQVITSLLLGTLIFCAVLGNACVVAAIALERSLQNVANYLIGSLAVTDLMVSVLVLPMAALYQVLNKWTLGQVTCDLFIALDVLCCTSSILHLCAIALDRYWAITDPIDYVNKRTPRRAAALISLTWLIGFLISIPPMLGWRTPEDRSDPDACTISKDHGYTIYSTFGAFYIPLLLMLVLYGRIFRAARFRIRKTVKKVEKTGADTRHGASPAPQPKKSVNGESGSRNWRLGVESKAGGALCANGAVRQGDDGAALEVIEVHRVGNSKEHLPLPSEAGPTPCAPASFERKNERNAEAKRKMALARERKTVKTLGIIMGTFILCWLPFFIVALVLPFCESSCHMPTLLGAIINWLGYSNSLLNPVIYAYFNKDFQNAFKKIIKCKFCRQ
Sequence of 5HT4 receptor (Q13639 whole entry): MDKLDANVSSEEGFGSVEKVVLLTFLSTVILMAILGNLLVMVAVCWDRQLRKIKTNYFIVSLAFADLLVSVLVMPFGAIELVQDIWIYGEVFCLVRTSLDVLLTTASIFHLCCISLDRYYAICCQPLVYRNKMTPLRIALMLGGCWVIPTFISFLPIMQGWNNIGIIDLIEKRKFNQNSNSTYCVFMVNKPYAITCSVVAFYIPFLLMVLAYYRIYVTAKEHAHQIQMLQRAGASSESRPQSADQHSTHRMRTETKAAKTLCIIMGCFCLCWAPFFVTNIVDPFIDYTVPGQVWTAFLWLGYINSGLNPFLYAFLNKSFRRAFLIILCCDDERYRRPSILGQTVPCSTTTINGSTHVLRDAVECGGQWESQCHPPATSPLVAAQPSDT
Sequence of Alpha1A adrenergic receptor (P35348 whole entry): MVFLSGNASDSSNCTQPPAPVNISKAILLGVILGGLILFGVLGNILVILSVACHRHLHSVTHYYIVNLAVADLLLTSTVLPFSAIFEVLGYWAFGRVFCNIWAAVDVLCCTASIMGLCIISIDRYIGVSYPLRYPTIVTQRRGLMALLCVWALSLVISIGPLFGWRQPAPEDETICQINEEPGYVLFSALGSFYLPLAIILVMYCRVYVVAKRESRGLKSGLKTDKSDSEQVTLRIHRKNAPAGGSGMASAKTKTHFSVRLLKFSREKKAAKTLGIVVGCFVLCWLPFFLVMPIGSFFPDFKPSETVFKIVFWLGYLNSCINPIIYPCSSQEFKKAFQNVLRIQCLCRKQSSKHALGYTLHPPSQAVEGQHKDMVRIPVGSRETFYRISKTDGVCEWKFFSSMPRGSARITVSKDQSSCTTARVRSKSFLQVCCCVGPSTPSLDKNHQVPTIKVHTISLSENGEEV

Row | SMILES | Ki 5HT4 [1] | Ki Alpha1A [2] | Ki [3] [µM] | Ki [4, 6] | Ki D2 [5] | Ki [2] [µM] | Ki [5] [µM] | Ki [4, 7] [µM]
1 | c1ccc(OC[C@H]2CN(CCN3CCc4ccccc43)CCO2)nc1 [Compound 15r, (R)-4-(2-(Indolin-1-yl)ethyl)-2-((pyridin-2-yloxy)methyl)morpholine] | — | — | 2.88 | 0.814 µM | — |  |  | 
2 | Cc1ccnc(OC[C@H]2CN(CCN3CCc4ccccc43)CCO2)c1 [Compound 17r, (R)-4-(2-(Indolin-1-yl)ethyl)-2-(((4-methylpyridin-2-yl)oxy)methyl)morpholine] | — | — |  | 1.93 µM | — |  |  | 
3 | O=C(CN1CCO[C@H](COc2ccccc2)C1)N1CCc2ccccc21 [Compound 18s, (S)-1-(Indolin-1-yl)-2-(2-(phenoxymethyl)morpholino)ethanone] | — | — |  | 5.53 µM | — |  |  | 
4 | c1ccc(OC[C@@H]2CN(CCN3CCc4ccccc43)CCO2)cc1 [Compound 19s, (S)-4-(2-(Indolin-1-yl)ethyl)-2-(phenoxymethyl)morpholine] | — |  | 0.0006 | < 1 µM and 0.132 µM |  | 2.72 | 0.342 | 
5 | c1cncc(OC[C@H]2CN(CCN3CCc4ccccc43)CCO2)c1 [Compound 21r, (R)-4-(2-(Indolin-1-yl)ethyl)-2-((pyridin-3-yloxy)methyl)morpholine] | — | — |  | 2.41 µM | — |  |  | 
6 | c1cncc(OC[C@@H]2CN(CCN3CCc4ccccc43)CCO2)c1 [Compound 21s, (S)-4-(2-(Indolin-1-yl)ethyl)-2-((pyridin-3-yloxy)methyl)morpholine] | — | — | 10 | 0.182 µM |  |  | > 10 | 
7 | O=C(CN1CCO[C@@H](COc2cccc(Cl)c2)C1)N1CCc2ccccc21 [Compound 22r, (R)-2-(2-((3-chlorophenoxy)methyl)morpholino)-1-(indolin-1-yl)ethanone] | — | — | 0.384 | 0.536 µM | — |  |  | 
8 | O=C(CN1CCO[C@H](COc2cccc(Cl)c2)C1)N1CCc2ccccc21 [Compound 22s, (S)-2-(2-((3-Chlorophenoxy)methyl)morpholino)-1-(indolin-1-yl)ethanone] | — | — | 1.39 | 2.86 µM | — |  |  | 
9 | Cc1ncccc1OC[C@@H]1CN(CCN2CCc3ccccc32)CCO1 [Compound 26s, (S)-4-(2-(Indolin-1-yl)ethyl)-2-(((2-methylpyridin-3-yl)oxy)methyl)morpholine] | — | — |  | < 1 µM and 0.435 µM | — |  |  | < 1
10 | Cc1ccc(OC[C@@H]2CN(CCN3CCc4ccccc43)CCO2)cn1 [Compound 28s, (S)-4-(2-(Indolin-1-yl)ethyl)-2-(((6-methylpyridin-3-yl)oxy)methyl)morpholine] | — | — |  | < 1 µM | — |  |  | < 1
11 | Cc1ccnc(C)c1OC[C@H]1CN(CCN2CCc3ccccc32)CCO1 [Compound 29r, (R)-2-(((2,4-Dimethylpyridin-3-yl)oxy)methyl)-4-(2-(indolin-1-yl)ethyl)morpholine] | — | — |  | 4.95 µM | — |  |  | 
12 | CC1Cc2ccccc2N1C(=O)CN1CCO[C@H](COc2cccc(Cl)c2)C1 (some centres unmarked) [Compound 64] | — | — | 0.644 | 2.39 µM | — |  |  | 
